Square brackets hold non-standard residues; d marks the D form. Peptide text beside a SMILES is read from it.
Columns and labels:
Aβ1-42 = Aβ1-42 (Homo sapiens, UniProt P05067); assay: ThT test, modulation of Aβ1-42 aggregation; type: biochemical; details: 10 μM Aβ1-42, equimolar peptide, versus Aβ1-42 alone = 100%
Description: FIG. 3: The average relative fluorescence from seven independently performed ThT experiments with standard deviation is shown. The dye Thioflavin T (ThT) binds to β-pleated sheet structures in the batch and thereupon changes its fluorescence spectrum. […] The time in which the logarithmic rise of the fluorescence signal transitioned into a stationary phase was set to 100%.

[1] = molecular target: Aβ1-42 species of different size (Homo sapiens, UniProt P05067); assay: Quantification of density gradient fractions by RP-HPLC; type: biochemical
Aβ1-42 species of different size, sequence (P05067 672-713 limits assumed): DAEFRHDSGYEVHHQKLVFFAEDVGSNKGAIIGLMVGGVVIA
Description: Certain further embodiments of the invention including a method will be presented hereinafter. What is known as the QIAD test (quantitative determination of interference with Aβ aggregate size distribution) can be used for the quantitative analysis of active substances. The method for quantitative analysis of the influence of an active substance on the particle size distribution of amyloid peptides and/or proteins in a sample has the following steps: A beta is first left to aggregate under controlled conditions, so that different A beta aggregates form. The conditions are selected so that a particularly large amount of small, particularly cytotoxic A beta oligomers are formed. […] This change is determined quantitatively. […] Due to the QIAD method, the increase or decrease of A beta aggregates of a specific particle size is measured. […] The concentration of A beta in the respective fractions is then determined by a complete denaturing of the A beta species during a reversed-phase (RP-)HPLC performed subsequently to the fractionation. […] Eluting A beta is detected by means of UV absorption at 215 nm. […] The mean value from a number of experiments carried out independently of one another (for example six) with the resultant standard deviation can be calculated for each fraction. […]
Samples of each fraction from the experiment shown in FIG. 5 were separated and quantified by means of reversed-phase HPLC. […]

Aβ1-42, sequence (P05067 672-713 limits assumed): as above

Structure (SMILES): CSCC[C@@H](NC(=O)[C@@H](Cc1c[nH]cn1)NC(=O)[C@@H](Cc1ccc(O)cc1)NC(=O)[C@@H](CO)NC(=O)[C@H](NC(=O)[C@@H](CC(C)C)NC(=O)[C@@H](Cc1ccc(O)cc1)NC(=O)[C@@H](CO)NC(=O)[C@H](N)Cc1ccc(O)cc1)[C@H](C)O)C(=O)N[C@@H](C(=O)N[C@H](Cc1c[nH]c2ccccc12)C(=O)N[C@H](CCCNC(=N)N)C(N)=O)C(C)C [Mosd1] (H-[dY][dS][dY][dL][dT][dS][dY][dH][dM][dV][dW][dR]-NH2)
- relative ThT fluorescence (formation of β-pleated sheet structures) (Aβ1-42): reduce the relative fluorescence
- concentration of high-molecular Aβ species (fractions 11-14) ([1]; 10-80 μM Mosd1, 80 μM Aβ1-42): rises
- concentrations of Aβ in the fractions which contained the toxic oligomers ([1]; 10-80 μM Mosd1, 80 μM Aβ1-42, 3 independent experiments): decrease with increasing concentration of Mosd1

— patent US10239923B2, “Specific amyloid beta binding peptides and the use of same for treating and diagnosing alzheimer's dementia” (Forschungszentrum Juelich GmbH, priority 2015, dated 2019)
